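48-hour exposure; five concentrations; linearly interpolated endpoints. GI50 marks 50% less growth.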 Calls of active or inactive are those of the source. Rule as the data show it: active = GI50 up to about 1.1 µM and inactive = higher.
How the values were obtained:
Test in all cases: inhibition of tumour cell growth, NCI panel, 48 h
[1] = system: IGROV-1
[2] = system: HOP-62
[3] = system: UO-31
[4] = system: DMS-273
[5] = system: SK-MEL-28
[6] = system: NCI-H23
[7] = system: RXF 393
[8] = system: NCI-H522
[9] = system: OVCAR-8
[10] = system: MOLT-4
[11] = system: OVCAR-3
[12] = system: SF-539
[13] = system: SNB-19
[14] = system: TK-10
[15] = system: HCT-116
[16] = system: A549
[17] = system: HCT-15

| SMILES | GI50 [1] | GI50 [2] | GI50 [3] | GI50 [4] | GI50 [5] | GI50 [6] | GI50 [7] | GI50 [8] | GI50 [9] | GI50 [10] | GI50 [11] | GI50 [12] | GI50 [13] | GI50 [14] | GI50 [15] | GI50 [16] | GI50 [17] |
| --- | --- | --- | --- | --- | --- | --- | --- | --- | --- | --- | --- | --- | --- | --- | --- | --- | --- |
| CC(=O)CNC(=O)OC(C)(C)C | > 100 µM (inactive) | > 100 µM (inactive) | > 100 µM (inactive) | > 100 µM (inactive) | > 100 µM (inactive) | > 100 µM (inactive) | > 100 µM (inactive) | > 100 µM (inactive) | > 100 µM (inactive) | > 100 µM (inactive) | > 100 µM (inactive) | > 100 µM (inactive) | > 100 µM (inactive) | > 100 µM (inactive) | > 100 µM (inactive) | > 100 µM (inactive) |  |
| C#CN1C(=O)c2c(c(-c3ccccc3)c(-c3ccc(Oc4ccc(-c5c(-c6ccccc6)c6c(c(-c7ccccc7)c5-c5ccccc5)C(=O)N(C#C)C6=O)cc4)cc3)c(-c3ccccc3)c2-c2ccccc2)C1=O | 72.6 µM (inactive) | > 100 µM (inactive) | > 100 µM (inactive) | > 100 µM (inactive) | > 100 µM (inactive) | > 100 µM (inactive) | 30.8 µM (inactive) | > 100 µM (inactive) | > 100 µM (inactive) | > 100 µM (inactive) | > 100 µM (inactive) | > 100 µM (inactive) | > 100 µM (inactive) | > 100 µM (inactive) | > 100 µM (inactive) | > 100 µM (inactive) | 30.8 µM |
| CN(C)C(=S)Nc1nnc(Nc2ccccc2)s1 | > 100 µM (inactive) | > 100 µM (inactive) | > 100 µM (inactive) | > 100 µM (inactive) | > 100 µM (inactive) | > 100 µM (inactive) | > 100 µM (inactive) | 9.51 µM (inactive) | > 100 µM (inactive) | > 100 µM (inactive) | > 100 µM (inactive) | > 100 µM (inactive) | > 100 µM (inactive) |  | > 100 µM (inactive) | > 100 µM (inactive) | > 100 µM |
| COc1ccc(/C(=N\NC(=N)N)C(c2ccc(OC)cc2)C2OC(=O)c3ccccc32)cc1 (configuration not stated) | > 100 µM (inactive) | > 100 µM (inactive) | > 100 µM (inactive) | > 100 µM (inactive) | > 100 µM (inactive) | > 100 µM (inactive) | > 100 µM (inactive) | > 100 µM (inactive) | > 100 µM (inactive) | > 100 µM (inactive) | > 100 µM (inactive) | > 100 µM (inactive) | > 100 µM (inactive) |  | > 100 µM (inactive) | > 100 µM (inactive) | > 100 µM |
| O=C1c2ccccc2C(=O)N1C/C=N/NS(=O)(=O)c1cccc([N+](=O)[O-])c1 | > 100 µM (inactive) | > 100 µM (inactive) | > 100 µM (inactive) | > 100 µM (inactive) |  | > 100 µM (inactive) | > 100 µM (inactive) | > 100 µM (inactive) | > 100 µM (inactive) | > 100 µM (inactive) |  | > 100 µM (inactive) | > 100 µM (inactive) | > 100 µM (inactive) | > 100 µM (inactive) | > 100 µM (inactive) | > 100 µM |
| CCOc1ccc(N2C(=O)/C(=C/c3ccc(N(CCC#N)CCC#N)cc3)N=C2c2cc([N+](=O)[O-])ccc2Cl)cc1 |  | 73.1 µM (inactive) | 39.4 µM (inactive) | 14.7 µM (inactive) | 7.67 µM (inactive) | 40.8 µM (inactive) | 12.2 µM (inactive) |  | 35.3 µM (inactive) | 0.191 µM (active) | 17.7 µM (inactive) | 27.2 µM (inactive) | 35.8 µM (inactive) | 58.1 µM (inactive) | 21.6 µM (inactive) | 45 µM (inactive) | 33.8 µM |
| O=C(/C=C/c1ccc(OCCCCCCCCCCOc2ccc(/C=C/C(=O)c3ccc(Cl)cc3)cc2)cc1)c1ccc(Cl)cc1 | > 100 µM (inactive) | > 100 µM (inactive) | > 100 µM (inactive) | > 100 µM (inactive) | > 100 µM (inactive) | > 100 µM (inactive) | > 100 µM (inactive) | > 100 µM (inactive) | > 100 µM (inactive) | > 100 µM (inactive) | > 100 µM (inactive) | > 100 µM (inactive) | > 100 µM (inactive) | > 100 µM (inactive) |  | > 100 µM (inactive) | > 100 µM |
| COc1ccc(C2S/C(=C\c3ccc([N+](=O)[O-])cc3)C(=O)N2NC(=O)Cc2ccccc2)cc1 (configuration not stated) | > 100 µM (inactive) | > 100 µM (inactive) | > 100 µM (inactive) | > 100 µM (inactive) | > 100 µM (inactive) | > 100 µM (inactive) | 25.6 µM (inactive) | > 100 µM (inactive) | > 100 µM (inactive) | 87.3 µM (inactive) |  | > 100 µM (inactive) |  | > 100 µM (inactive) | 66.4 µM (inactive) | > 100 µM (inactive) | 79.8 µM |
| O=C1c2ccccc2C(=O)c2nc(-c3ccccc3)c(-c3ccccc3)nc21 |  | 33 µM (inactive) | > 100 µM (inactive) | 33.7 µM (inactive) | > 74.1 µM (inactive) | 17.6 µM (inactive) | > 43.5 µM (inactive) | 14.4 µM (inactive) | > 100 µM (inactive) | > 100 µM (inactive) | 2.58 µM (inactive) | 24.7 µM (inactive) | 24.9 µM (inactive) | > 100 µM (inactive) | > 100 µM (inactive) | 22.8 µM (inactive) | > 88.1 µM |
| Nc1nc2ncn(CC(O)CO)c2c(=S)[nH]1 (configuration not stated) | > 100 µM (inactive) | > 100 µM (inactive) | > 100 µM (inactive) | > 100 µM (inactive) | > 100 µM (inactive) |  | > 100 µM (inactive) | > 100 µM (inactive) | > 100 µM (inactive) |  | > 100 µM (inactive) | > 100 µM (inactive) | > 100 µM (inactive) | > 100 µM (inactive) | > 100 µM (inactive) | > 100 µM (inactive) | > 100 µM |
| COc1ccc(-c2nc3c(nc2-c2ccc(OC)cc2)C(N)=NS(=O)(=O)N3)cc1 | > 100 µM (inactive) | > 100 µM (inactive) | > 100 µM (inactive) | > 100 µM (inactive) | > 100 µM (inactive) | > 100 µM (inactive) | > 100 µM (inactive) | > 100 µM (inactive) | > 100 µM (inactive) | > 100 µM (inactive) | > 100 µM (inactive) | > 100 µM (inactive) | > 100 µM (inactive) | > 100 µM (inactive) |  | > 100 µM (inactive) | > 100 µM |
| O=C1N[C@@H](O)[C@@H]2ON=C(c3ccccc3)[C@H]12 | > 100 µM (inactive) | > 100 µM (inactive) | > 100 µM (inactive) | > 100 µM (inactive) | > 100 µM (inactive) | > 100 µM (inactive) | > 100 µM (inactive) |  | > 100 µM (inactive) | > 100 µM (inactive) | > 100 µM (inactive) | > 100 µM (inactive) | > 100 µM (inactive) | > 100 µM (inactive) | > 100 µM (inactive) | > 100 µM (inactive) | > 100 µM |
| C1=CC(N(c2ccccc2)C2C=CCCC2)CCC1 (configuration not stated) | > 100 µM (inactive) |  |  | > 100 µM (inactive) | > 100 µM (inactive) | > 100 µM (inactive) | 48.6 µM (inactive) | 67 µM (inactive) | > 100 µM (inactive) | > 10 µM (inactive) |  | > 100 µM (inactive) |  | > 100 µM (inactive) | 70.1 µM (inactive) | > 100 µM (inactive) | > 100 µM |

— ChEMBL document CHEMBL1201862, “PubChem BioAssay data set” (2004)
